From US8178689B2, “Tricyclic compounds” (Hoffman-La Roche Inc., priority 2010, dated 2012)

Target: T1, Recombinant human liver GK1 (GST-GK) (Homo sapiens, UniProt P35557)
T1 construct: made in house; host or cells: E. coli
T1 sequence (P35557 1-466 isoform P35557-2): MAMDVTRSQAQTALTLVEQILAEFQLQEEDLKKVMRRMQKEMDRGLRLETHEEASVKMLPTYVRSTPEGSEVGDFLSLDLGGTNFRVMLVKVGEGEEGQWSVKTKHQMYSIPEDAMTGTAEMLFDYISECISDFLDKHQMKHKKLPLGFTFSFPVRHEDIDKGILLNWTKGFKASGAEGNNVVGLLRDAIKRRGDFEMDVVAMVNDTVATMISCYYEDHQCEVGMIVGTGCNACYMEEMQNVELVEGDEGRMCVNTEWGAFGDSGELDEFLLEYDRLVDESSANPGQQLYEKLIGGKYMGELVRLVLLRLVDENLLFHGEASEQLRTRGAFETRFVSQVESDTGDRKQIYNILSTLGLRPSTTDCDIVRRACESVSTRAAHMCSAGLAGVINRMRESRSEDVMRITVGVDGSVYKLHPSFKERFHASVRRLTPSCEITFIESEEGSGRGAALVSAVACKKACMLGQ
Assay: In vitro glucokinase activity (G6PDH-coupled NADH generation assay)
Assay type: biochemical
Design: unit not given here
Conditions: concentration of activator that produced a 50% increase in the activity of GK; 5 mM D-glucose, 30° C., pH 7.1, 10% DMSO
Protocol: Glucokinase In Vitro Assay Protocol: Glucokinase (GK) was assayed by coupling the production of glucose-6-phosphate to the generation of NADH with glucose-6-phosphate dehydrogenase (G6PDH, 0.75-1 kunits/mg; Boehringer Mannheim, Indianapolis, Ind.) from Leuconostoc mesenteroides as the coupling enzyme:
Recombinant human liver GK1 was expressed in E. coli as a glutathione S-transferase fusion protein (GST-GK) [Liang et al, 1995]and was purified by chromatography over a glutathione-Sepharose 4B affinity column using the procedure provided by the manufacturer (Amersham Pharmacia Biotech, Piscataway, N.J.).
The assay was conducted at 30° C. in a flat bottom 96-well tissue culture plate from Costar (Cambridge, Mass.) with a final incubation volume of 120 μL. The incubation reaction contained the following: 25 mM Hepes buffer (pH 7.1), 25 mM KCl, 5 mM D-glucose, 1 mM ATP, 1.8 mM NAD, 2 mM MgCl2, 1 μM sorbitol-6-phosphate, 1 mM dithiothreitol, test drug or 10% DMSO, ˜7 units/ml G6PDH, and GK (see below). All organic reagents were >98% pure and were from Boehringer Mannheim with the exceptions of D-glucose and Hepes which were from Sigma Chemical Co, St Louis, Mo. Test compounds were dissolved in DMSO and were added to the incubation reaction minus GST-GK in a volume of 12 μL to yield a final DMSO concentration of 10%. This mix was pre-incubated in the temperature controlled chamber of a SPECTRAmax 250 microplate spectrophotometer (Molecular Devices Corporation, Sunnyvale, Calif.) for 10 minutes to allow temperature equilibrium and then the reaction was started by the addition of 20 μL GST-GK.
After addition of enzyme, the increase in optical density (OD) at 340 nm was monitored spectrophotometrically to determine the rate of change (OD340 per min). The GK activity (OD340/min) in control wells (10% DMSO minus GK activators) was compared with the activity in wells containing test GK activators, and the concentration of activator that produced a 50% increase in the activity of GK, i.e., the SC1.5:0.1, was calculated. The table below provides the in vitro glucokinase activity for the compounds in the Examples: […]

| Compound | SC 1.5:0.1 |
| --- | --- |
| CC(C)C[C@@H](C(=O)Nc1ccccn1)N1CC2=C(Oc3c(Cl)cccc3C2)C1=O [Example 23, (S)-2-(5-Chloro-3-oxo-3,9-dihydro-1H-chromeno[2,3-c]pyrrol-2-yl)-4-methyl-pentanoic acid pyridin-2-ylamide] | 11.865 |
| O=C(Nc1nccs1)[C@H](CC1CCCCC1)N1CC2=C(Oc3c(Cl)cccc3C2)C1=O [Example 21, (S)-2-(5-Chloro-3-oxo-3,9-dihydro-1H-chromeno[2,3-c]pyrrol-2-yl)-3-cyclohexyl-N-thiazol-2-yl-propionamide] | 4.181 |
| COC(=O)c1ccc(NC(=O)[C@H](CC2CCCCC2)N2CC3=C(Oc4cccc(OC)c4C3)C2=O)nc1 [Example 10, 6-[(S)-3-Cyclohexyl-2-(8-methoxy-3-oxo-3,9-dihydro-1H-chromeno[2,3-c]pyrrol-2-yl)-propionylamino]-nicotinic acid methyl ester] | 0.302 |
| CC(C)C[C@@H](C(=O)Nc1nccs1)N1CC2=C(Oc3cccc(Cl)c3C2)C1=O [Example 5, (S)-2-(8-Chloro-3-oxo-3,9-dihydro-1H-chromeno[2,3-c]pyrrol-2-yl)-4-methyl-pentanoic acid thiazol-2-ylamide] | 9.277 |
| COC(=O)c1ccc(NC(=O)[C@H](CC2CCCCC2)N2CC3=C(Oc4c(OC)ccc(OC)c4C3)C2=O)nc1 [Example 17, 6-[(S)-3-Cyclohexyl-2-(5,8-dimethoxy-3-oxo-3,9-dihydro-1H-chromeno[2,3-c]pyrrol-2-yl)-propionylamino]-nicotinic acid methyl ester] | 0.219 |
| COc1cccc2c1CC1=C(O2)C(=O)N([C@@H](CC2CCCCC2)C(=O)Nc2nccs2)C1 [Example 9, (S)-3-Cyclohexyl-2-(8-methoxy-3-oxo-3,9-dihydro-1H-chromeno[2,3-c]pyrrol-2-yl)-N-thiazol-2-yl-propionamide] | 0.746 |
| COC(=O)c1ccc(NC(=O)[C@H](CC(C)C)N2CC3=C(Oc4c(OC)ccc(OC)c4C3)C2=O)nc1 [Example 19, 6-[(S)-2-(5,8-Dimethoxy-3-oxo-3,9-dihydro-1H-chromeno[2,3-c]pyrrol-2-yl)-4-methyl-pentanoylamino]-nicotinic acid methyl ester] | 0.803 |
| COC(=O)c1ccc(NC(=O)[C@H](CC(C)C)N2CC3=C(Oc4c(Cl)cccc4C3)C2=O)nc1 [Example 22, 6-[(S)-2-(5-Chloro-3-oxo-3,9-dihydro-1H-chromeno[2,3-c]pyrrol-2-yl)-4-methyl-pentanoylamino]-nicotinic acid methyl ester] | 9.858 |
| CC(C)C[C@@H](C(=O)Nc1nccs1)N1CC2=C(Oc3c(Cl)cccc3C2)C1=O [Example 24, (S)-2-(5-Chloro-3-oxo-3,9-dihydro-1H-chromeno[2,3-c]pyrrol-2-yl)-4-methyl-pentanoic acid thiazol-2-ylamide] | 18.957 |
| COc1ccc(OC)c2c1CC1=C(O2)C(=O)N([C@@H](CC(C)C)C(=O)Nc2ccc(Cl)cn2)C1 [Example 14, (S)-2-(5,8-Dimethoxy-3-oxo-3,9-dihydro-1H-chromeno[2,3-c]pyrrol-2-yl)-4-methyl-pentanoic acid (5-chloro-pyridin-2-yl)-amide] | 0.911 |
| CC(C)C[C@@H](C(=O)Nc1ccccn1)N1CC2=C(Oc3cccc(Cl)c3C2)C1=O [Example 3, (S)-2-(8-Chloro-3-oxo-3,9-dihydro-1H-chromeno[2,3-c]pyrrol-2-yl)-4-methyl-pentanoic acid pyridin-2-ylamide] | 4.602 |
| COc1cccc2c1CC1=C(O2)C(=O)N([C@@H](CC2CCCCC2)C(=O)Nc2ccc(Cl)cn2)C1 [Example 8, (S)—N-(5-Chloro-pyridin-2-yl)-3-cyclohexyl-2-(8-methoxy-3-oxo-3,9-dihydro-1H-chromeno[2,3-c]pyrrol-2-yl)-propionamide] | 0.292 |
| COc1ccc(OC)c2c1CC1=C(O2)C(=O)N([C@@H](CC2CCCCC2)C(=O)Nc2ccccn2)C1 [Example 13, (S)-3-Cyclohexyl-2-(5,8-dimethoxy-3-oxo-3,9-dihydro-1H-chromeno[2,3-c]pyrrol-2-yl)-N-pyridin-2-yl-propionamide] | 0.304 |
| COc1cccc2c1CC1=C(O2)C(=O)N([C@@H](CC(C)C)C(=O)Nc2nccs2)C1 [Example 11, (S)-2-(8-Methoxy-3-oxo-3,9-dihydro-1H-chromeno[2,3-c]pyrrol-2-yl)-4-methyl-pentanoic acid thiazol-2-ylamide] | 8.123 |
| COc1cccc2c1CC1=C(O2)C(=O)N([C@@H](CC2CCCCC2)C(=O)Nc2ccccn2)C1 [Example 7, (S)-3-Cyclohexyl-2-(8-methoxy-3-oxo-3,9-dihydro-1H-chromeno[2,3-c]pyrrol-2-yl)-N-pyridin-2-yl-propionamide] | 0.333 |
| COc1cccc2c1CC1=C(O2)C(=O)N([C@@H](CC2CCCCC2)C(=O)Nc2ccn(C[C@@H](O)CO)n2)C1 [Example 25, (S)-3-Cyclohexyl-N-[1-((R)-2,3-dihydroxy-propyl)-1H-pyrazol-3-yl]-2-(8-methoxy-3-oxo-3,9-dihydro-1H-chromeno[2,3-c]pyrrol-2-yl)-propionamide] | 0.507 |
| COc1ccc(OC)c2c1CC1=C(O2)C(=O)N([C@@H](CC(C)C)C(=O)Nc2ccccn2)C1 [Example 18, (S)-2-(5,8-Dimethoxy-3-oxo-3,9-dihydro-1H-chromeno[2,3-c]pyrrol-2-yl)-4-methyl-pentanoic acid pyridin-2-ylamide] | 2.532 |
| O=C(Nc1nccs1)[C@H](CC1CCCCC1)N1CC2=C(Oc3cccc(Cl)c3C2)C1=O [Example 2, (S)-2-(8-Chloro-3-oxo-3,9-dihydro-1H-chromeno[2,3-c]pyrrol-2-yl)-3-cyclohexyl-N-thiazol-2-yl-propionamide] | 4.051 |
| O=C(Nc1ccccn1)[C@H](CC1CCCCC1)N1CC2=C(Oc3cccc(Cl)c3C2)C1=O [Example 1, (S)-2-(8-Chloro-3-oxo-3,9-dihydro-1H-chromeno[2,3-c]pyrrol-2-yl)-3-cyclohexyl-N-pyridin-2-yl-propionamide] | 1.311 |
| CC(C)C[C@@H](C(=O)Nc1ccc(Cl)cn1)N1CC2=C(Oc3cccc(Cl)c3C2)C1=O [Example 4, (S)-2-(8-Chloro-3-oxo-3,9-dihydro-1H-chromeno[2,3-c]pyrrol-2-yl)-4-methyl-pentanoic acid (5-chloro-pyridin-2-yl)-amide] | 3.18 |
| COC(=O)c1ccc(NC(=O)[C@H](CC(C)C)N2CC3=C(Oc4cccc(Cl)c4C3)C2=O)nc1 [Example 6, 6-[(S)-2-(8-Chloro-3-oxo-3,9-dihydro-1H-chromeno[2,3-c]pyrrol-2-yl)-4-methyl-pentanoylamino]-nicotinic acid methyl ester] | 3.324 |
| O=C(Nc1ccccn1)[C@H](CC1CCCCC1)N1CC2=C(Oc3c(Cl)cccc3C2)C1=O [Example 20, (S)-2-(5-Chloro-3-oxo-3,9-dihydro-1H-chromeno[2,3-c]pyrrol-2-yl)-3-cyclohexyl-N-pyridin-2-yl-propionamide] | 2.423 |
| COc1ccc(OC)c2c1CC1=C(O2)C(=O)N([C@@H](CC2CCCCC2)C(=O)Nc2nccs2)C1 [Example 16, (S)-3-Cyclohexyl-2-(5,8-dimethoxy-3-oxo-3,9-dihydro-1H-chromeno[2,3-c]pyrrol-2-yl)-N-thiazol-2-yl-propionamide] | 2.439 |
| COc1ccc(OC)c2c1CC1=C(O2)C(=O)N([C@@H](CC2CCCCC2)C(=O)Nc2ccc(Cl)cn2)C1 [Example 15, (S)—N-(5-Chloro-pyridin-2-yl)-3-cyclohexyl-2-(5,8-dimethoxy-3-oxo-3,9-dihydro-1H-chromeno[2,3-c]pyrrol-2-yl)-propionamide] | 0.428 |
| COC(=O)c1ccc(NC(=O)[C@H](CC(C)C)N2CC3=C(Oc4cccc(OC)c4C3)C2=O)nc1 [Example 12, 6-[(S)-2-(8-Methoxy-3-oxo-3,9-dihydro-1H-chromeno[2,3-c]pyrrol-2-yl)-4-methyl-pentanoylamino]-nicotinic acid methyl ester] | 0.906 |
